Data published in US12636378B2, “Targeted antigen delivery system and uses thereof” (SRI International, priority 2020, dated 2026).
Entries after “also recorded” stand apart in the source; their conditions may differ. Read-outs that look alike come from different tables or passages of the source. No end group written: not given here.

How the values were obtained:
[1] = test system: LLC1 cells; experiment: Confocal microscopy, autophagic vesicles in LLC1 cells; format: cell-based, mouse
From the text: (§1) Therefore, accumulation in autophagosomes is a necessary component for success of this immunotherapy.

[2] = test system: GL261 cells implanted in the brain; details: fluorescent dye-labelled peptide
[3] = test system: LLC1 tumors; details: 15 μg I.V., Alexa Fluor 750 conjugate, 72 hours
Protocol: The LLC1 tumors were grown until palpable (≈500 mm^3) at which point mice were treated I.V. with 15 μg of SRI_MGS5_V2 conjugated to Alexa Fluor 750. Images were taken daily for 72 hours, after which the animal was sacrificed, and its organs were assessed to determine localization of the targeting peptide.

[4] = test system: normal control human lung epithelial cell line (HBEC); experiment: Binding to normal lung epithelial cells; format: cell-based
From the text: (§2) The final optimized SRI_MGS5_V1 peptide, SRI_MGS5_V2, has the following characteristics.

[5] = test system: pancreatic cancer line (Pan02); experiment: Flow cytometry binding and internalization in Pan02 cells; format: cell-based, mouse
From the text: as §2

[6] = test system: glioma cell line (GL-261); experiment: Flow cytometry binding and internalization in GL261 cells; format: cell-based, mouse
From the text: as §2

[7] = test system: NSCLC lines; experiment: Flow cytometry binding to NSCLC lines; format: cell-based, human
From the text: as §2

[8] = test system: panel of cancer cell lines; experiment: Binding in a panel of cancer cell lines; format: cell-based
[9] = test system: Multiple Different Cancer Types; experiment: Functional presentation of antigenic peptide in multiple cancer types; format: cell-based
From the text: Treatment groups: A—MGS5_V2 Targeted Liposome Loaded with H250 Antigen; B—Positive Control: Cells Pulsed with Free H250 Antigen; C—No MGS on Liposome Loaded with H250 Antigen; D—Blank Liposomes—no H250 Antigen.

[10] = test system: H358 cells; experiment: Quantitative flow cytometry uptake assay, H358; format: cell-based, human
Protocol: H358 cell line data has been not included in FIG. 6 for clarity due to differences in the Y axis.
(§3) A quantitative flow cytometry assay was performed that measures the average number of molecules of peptide internalized per cell. […] The number of molecules internalized ranges from 1×10^5 molecules/cell for H358 cells to 8×10^5 for H1993 cells, corresponding to intracellular concentrations of 100-800 nM. The rate of uptake at 6 hours is not saturated and it appears that peptide continues to enter the cell past this time (FIG. 5 and FIG. 6). This indicates either high receptor numbers which have not yet saturated or rapid recycling of the receptor that allows for continual delivery, reaching high intracellular concentrations of the peptide.

[11] = test system: breast cancer lines (MCF-7, MDA-MB-231and 4T1); experiment: Binding to breast cancer lines; format: cell-based
From the text: as §2

[12] = test system: H1993 cells; experiment: Co-culture assay, liposome treated H1993 cells with HLA-A2 positive PBMCs, cytokine ELISA; format: cell-based, human
Protocol: TALL treated H1993 cells were co-cultured with HLA-A2 positive PBMCs and culture supernatants were analyzed for TNF-α secretion. Concentration of all liposomes used in this assay corresponded to ≈4.5 mg/ml of phosphatidyl choline. Free H250 peptide control is incubated at 5 μmol/L.
TALL treated H1993 cells were co-cultured with HLA-A2 positive PBMCs and culture supernatants were analyzed for IFNγ secretion. Concentration of all liposomes used in this assay corresponded to ≈4.5 mg/ml of phosphatidyl choline. Free H250 peptide control is incubated at 5 μmol/L.
(§4) The liposomes were loaded with the H250 antigenic peptide and SRI_MGS5_V2 or SRI_MGS5_V1 was conjugated to the external face of the liposome via maleimide chemistry. The liposomes were incubated with H1993 cells followed by co-culture with peripheral blood mononuclear cells (PBMCs) from an anonymous donor that is haplotype HLA A2+ and vaccinated against measles. […] More experiments testing different liposome variants and assessing TNF-α and INF-γ in co-culture were performed. […] The same experiments were completed using mouse LLC1 cells as the antigen presenting cells and lymph node lymphocytes (LNL) from C57B1/6 mice that had been vaccinated against HA.

[13] = test system: 4T1 cells; experiment: Quantitative flow cytometry binding and internalization in 4T1 cells; format: cell-based, mouse
[14] = test system: subcutaneous H1993 NSCLC tumor; experiment: NIR imaging of dye-labeled peptides in mice with subcutaneous H1993 tumor; format: in vivo; details: for tumor accumulation / tumor targeting: Alexa Fluor 750 conjugate, tail vein injection
Protocol: The peptides were conjugated to Alexa Fluor 750 dye and […] injected intravenously via the tail vein into mice bearing a subcutaneous H1993 NSCLC tumor on their right flank.
SRI_MGS5_V2 and parental SRI_MGS5_V1 were labeled with the near-infrared dye Alexa Fluor 750 for imaging. […] For example, SRI_MGS5_V2 has 3-fold lower signal in the lung compared to SRI_MGS5_V1. […] Importantly, the corresponding nonacetylated versions of each peptide were evaluated as well.

[15] = test system: Pan02 cells; details: fluorescent dye-labelled peptide
[16] = test system: 4T1 cells implanted in mammary fat pads; details: nIR dye-labelled peptide
[17] = test system: LLC1 cells; experiment: Co-culture assay, liposome treated LLC1 cells, cytokine ELISA; format: cell-based, murine
Protocol: TALL treated LLC1 cells were co-cultured with HLA-A2 positive PBMCs and culture supernatants were analyzed for TNF-α a secretion. […] Concentration of all liposomes used in this assay corresponded to ≈4.5 mg/ml of phosphatidyl choline. Free H250 peptide control is incubated at 5 μmol/L.
TALL treated LLC1 cells were co-cultured with HLA-A2 positive PBMCs and culture supernatants were analyzed for IFN-γ secretion. […] Concentration of all liposomes used in this assay corresponded to ≈4.5 mg/ml of phosphatidyl choline. Free H250 peptide control is incubated at 5 μmol/L.
as §4

[18] = test system: H1993 cells; experiment: Quantitative flow cytometry uptake assay, H1993; format: cell-based, human
Protocol: as §3

[19] = test system: three human NSCLC cell lines; experiment: Quantitative flow cytometry uptake assay, NSCLC cell lines; format: cell-based
Protocol: Uptake is represented as an average number of peptides per cell. Error bars are smaller than the symbol for some points.
as §3

[20] = test system: H1993 cells
[21] = test system: H1993 NSCLC cells; experiment: Confocal microscopy, co-localization of peptide with autophagic vesicles; format: cell-based, human; details: 100 nM
Protocol: FIGS. 7A-7C show an example of co-localization of SRI_MGS5_V2 peptides with autophagic vesicles (A) H1993 cells treated with 100 nM of SRI_MGS5_V1 peptide (panel A) and optimized SRI_MGS_V2 (panels B and C) conjugated with Alexa Fluor 647 (Red). Autophagosomes are stained with LC3B antibody (Green). The regions corresponding to co-localization of the peptide and autophagic vesicles are shown in yellow.
as §1

[22] = HLA A*02:01 patients; cited from earlier work
[23] = Physicochemical properties of peptides (hydrophobicity, solubility, stability)
[24] = test system: cancer cells; details: cited from earlier work
[25] = test system: normal control human lung epithelial cell line (HBEC); details: cited from earlier work

Substance: (CH3CO-LQWRRNFGVWARYRL-PEG11)2K-X (not fully specified; N-acetyl, PEG11, dimerized on lysine core, tag X; targeting sequence) [SRI_MGS5_V2]
- accumulation in autophagic vesicles [1]: Comparable results
- tumor localization, orthotopic GL261 [2]: homes to tumors
- tumor localization, orthotopic GL261 ([2]; listed as MGS5_V2): targets GL261 cells
- localization in LLC1 tumor ([3]; listed as SRI_MGS2_V2): successfully localized
- localization in LLC1 tumor ([3]; listed as SRI_MGS5_V5): homes to LLC1 tumors
- discrimination between NSCLC cancer and normal cells in the lung [4]: high discriminating power
- binding (and internalization) in Pan02 cells [5]: shown to bind; also recorded: binds
- binding (and internalization) in Pan02 cells ([5]; listed as MGS5_V2): concentration dependent binding and internalization
- binding (and internalization) in GL261 cells [6]: shown to bind; also recorded: binds
- binding (and internalization) in GL261 cells ([6]; listed as MGS5_V2): concentration dependent binding and internalization
- binding to NSCLC lines compared to parental SRI_MGS5_V1 [7]: greater binding affinity; also recorded: increased binding
- binding in a panel of cancer cell lines [8]: improved binding
- functional presentation of antigenic peptide [9]: Mediates Functional Presentation
- number of molecules internalized [10]: 1×10^5 molecules/cell
- binding to breast cancer lines [11]: shown to bind; also recorded: binds
- presentation of encapsulated immunogenic peptide in HLA class I molecules (IFNγ ELISA) [12]: facilitates presentation
- presentation of encapsulated immunogenic peptide in HLA class I molecules (TNF-α ELISA) [12]: facilitates presentation
- binding and internalization in 4T1 cells [13]: concentration dependent binding and internalization
- tumor accumulation / tumor targeting [14]: accumulate specifically
- non-specific accumulation in the lung and other organs vs acetylated SRI_MGS5_V1 ([14]; ex vivo imaging at 72 H): reduced non-specific accumulation
- less signal in the kidneys compared to SRI_MGS5_V1 ([14]; ex vivo, 72 H): 2.2 fold
- extent of tumor uptake, V1 versus V2 ([14]; mouse, in vivo): roughly the same degree
- less signal in the liver compared to SRI_MGS5_V1 ([14]; mouse, in vivo): 1.6 fold
- lower signal in the lung compared to SRI_MGS5_V1 ([14]; mouse, in vivo): 3 fold
- time to localization at the tumor site ([14]; mouse, in vivo): ≤ 24 h
- tumor signal maintained ([14]; mouse, in vivo): 72 h
- tumor localization, orthotopic Pan02 [15]: homes to tumors
- tumor localization, orthotopic Pan02 ([15]; listed as MGS5_V2): localized in the tumor
- tumor localization, orthotopic 4T1 [16]: homes to tumors
- tumor localization, orthotopic 4T1 ([16]; listed as MGS5_V2): localized within the tumors
- presentation of encapsulated immunogenic peptide in HLA class I molecules (IFN-γ ELISA) [17]: facilitates presentation
- presentation of encapsulated immunogenic peptide in HLA class I molecules (TNF-α ELISA) [17]: facilitates presentation
- number of molecules internalized [18]: 8×10^5 molecules/cell
- uptake at low temperature ([19]; 4° C.): greatly reduced
- rate of uptake ([19]; at 6 hours, 100 nM dye-labeled peptide): not saturated
- intracellular concentrations ([19]; corresponding to molecules/cell from H358 to H1993): 100 to 800 nM
- internalization ([19]; three human NSCLC cell lines): is internalized
- cell viability ([20]; 72 hours, concentrations as high as 250 μM): No significant loss of viability
- toxicity of uptake ([20]; H1993 cells): not toxic
- accumulation in autophagic vesicles compared to parental MGS5_V1 [21]: much greater extent

Substance: ILPGQDLQYV [H516]
- immunogenic response [22]: highly immunogenic

Substance: SLSAYIIRV [H3L, SLSAYIIRV]
- biophysical properties [23]: hydrophobic, difficult to purify, and unstable

Substance: SLWGSLLML [C166, SLWGSLLML]
- biophysical properties [23]: hydrophobic, difficult to purify, and unstable

Substance: SMYRVFEVGV [H250, measles virus hemagglutinin peptide, HLA class I (A*02:01) restricted]
- immunogenic response [22]: strong CD8 specific IFNγ response; also recorded: strong CD8 specific IFNy response

Substance: SRI_MGS5_V1: parental tumor-targeting peptide, dimer comprising LQWRRDDNVHNFGVWARYRL (SEQ ID NO:2) (also: dimer) [reference compound]
- accumulation in cancer cells [24]: selectively accumulate
- binding to normal human bronchial epithelial cells [25]: limited binding
- off-tumor signal in vivo ([14]; 24 H): significant signal along the dorsal side
- tumor accumulation / tumor targeting [14]: accumulate specifically
- extent of tumor uptake, V1 versus V2 ([14]; mouse, in vivo): roughly the same degree
- time to localization at the tumor site ([14]; mouse, in vivo): ≤ 24 h
- tumor signal maintained ([14]; mouse, in vivo): 72 h
